Reference: BigSolDB 2.1

O=C(O)c1ccc(C(=O)O)o1
Settings | solubility (mole fraction)
in acetic acid, 303.55 K | 0.000242
in acetic acid, 313.25 K | 0.000319
in acetic acid, 322.95 K | 0.000471
in acetic acid, 332.75 K | 0.000656
in acetic acid, 342.45 K | 0.000874
in acetic acid, 352.25 K | 0.00111
in ethanol, 299.35 K | 0.00298
in ethanol, 305.35 K | 0.00337
in ethanol, 311.25 K | 0.004
in ethanol, 319.25 K | 0.00478
in ethanol, 323.15 K | 0.00526
in ethanol, 328.95 K | 0.0062
in ethanol, 334.75 K | 0.0072
in ethanol, 340.55 K | 0.00814
in ethanol, 346.35 K | 0.0093
in methanol, 297.35 K | 0.00371
in methanol, 303.35 K | 0.00408
in methanol, 309.35 K | 0.00484
in methanol, 315.25 K | 0.00563
in methanol, 321.15 K | 0.00661
in methanol, 326.85 K | 0.00758
in methanol, 332.65 K | 0.00884
in water, 303.55 K | 0.000141
in water, 313.25 K | 0.000195
in water, 322.95 K | 0.000302
in water, 332.75 K | 0.00047
in water, 342.45 K | 0.000672
in water, 352.25 K | 0.000873
